What was measured:
[1] = test system: C3H/HeJ mice having alopecia universalis; assay: Hair growth in C3H/HeJ mice with skin graft-induced alopecia areata; assay type: in vivo, mouse; conditions: 100 μl of 100 nM topical once daily for 14 weeks
Text: In order to confirm the effect of the polypeptide of the present invention on the human hair growth cycle, C3H/HeJ mouse (Jackson Laboratory, USA) was used as an animal model reflecting the pathological state of human alopecia areata. The advantage of using the C3H/HeJ mouse is that when full thickness skin graft is applied to an aged mouse having alopecia areata from young age, patchy alopecia develops within 8 to 10 weeks, and after 20 weeks, alopecia extends to the whole body skin and result in a chronic state of alopecia universalis.
In this test, C3H/HeJ female mice having alopecia universalis that was induced 25 weeks after skin transplantation as described above were used. Without any pretreatment such as shaving or depilation, control group (Control-treated mice, 100 μl of 20% glycerol/PBS) and Neo-Pep polypeptide treated group (Peptide-treated mice, 100 μl of 100 nM Neo-Pep polypeptide (SEQ ID NO: 1) in 20% glycerol/PBS) were treated with each test material topically around the alopecia region using brush, once daily, for 14 weeks. Control group and Neo-Pep treated group consisted of 4 mice, respectively.
Photographs were taken every 2 weeks from the beginning of the experiment.

[2] = test system: β-catenin target genes AXIN, CD44 and TCF7; assay: qRT-PCR of β-catenin target genes in CD34+ cells; assay type: cell-based, mouse; conditions: 100 nM, CD34+ cells cultured 8 hours
Experimental: In order to confirm the induction of CD34+ hair follicle stem cell proliferation through β-catenin pathway, mRNA expression levels of β-catenin target genes AXIN, CD44 and TCF7 were confirmed by the following method. Specifically, each test substance was treated and CD34+ cells were cultured for 8 hours. Then, the cultured cells were collected, RNA was isolated using GeneJET RNA purification kit (Thermo Fisher, K0731), and cDNA was synthesized with the Maxima first strand cDNA synthesis kit (Thermo Fisher, K1642). qRT-PCR was performed using each of the gene-specific primers (TCF7: 5′-[…]-3′ (SEQ ID NO: 36) and 5′-[…]-3′ (SEQ ID NO: 37), AXIN2: 5′-CTCCTTGGAGGCAAGAGC-3′ (SEQ ID NO: 38) and 5′-GGCCACGCAGCACCGCTG-3′ (SEQ ID NO: 39), CD44: 5′-[…]-3′ (SEQ ID NO: 40) and 5′-GGAGTCTTCGCTTGGGGTA-3′ (SEQ ID NO: 41)), Maxima SYBR green/ROX qPCR master mix (Thermo Fisher, K0222) and 7500 Real-time PCR system (Applied Biosystems, 2720; condition: 40 cycles, 2 step (95° C. for 15 sec, and 54° C. for 60 sec). The expression level of each gene was calculated by the ΔΔCT method.

[3] = test system: hair follicles of anagen phase in dorsal skin; assay: H&E staining of dorsal skin sections: anagen hair follicle count and dermis thickness; assay type: in vivo, mouse; conditions: H&E stained dorsal skin sections, Day 13 after depilation, 100 nM
Experimental: Skin samples of 7 weeks old male C57BL6 mice (purchased from Orient Bio Inc.) were collected and placed in a cryomold using an OCT compound (Tissue-Tek) and stored at −80° C. in a freezer. After tissue sections were prepared with Microm HM 525 (Thermo Scientific), the tissue sections prepared in the slide glass were fixed with 4% paraformaldehyde for 10 minutes, washed twice with PBS for 5 minutes, and then stained with 50 μl of hematoxylin solution (Sigma Aldrich) for 6 minutes and washed with water and PBS for 5 minutes. Then, stained with eosin (Sigma Aldrich), briefly washed with water and washed with PBS for 5 min, then briefly twice with 95% ethanol and 100% ethanol, respectively. After treatment with xylene (Duksan) twice for 2 min, the stained tissue sections were covered with cover slides and fixed.
In addition, dorsal skin samples of the mice were collected and placed in a cryomold using an OCT compound (Tissue-Tek) and stored at −80° C. in a freezer. […] The number of hair follicles of anagen phase (growth phase) was counted and compared quantitatively in dorsal skin sections of each group stained with hematoxylin and eosin (H & E).

[4] = test system: CD34+ hair follicle stem cells; assay: In vitro hair growth assay / BrdU proliferation assay with CD34+ hair follicle stem cells; assay type: cell-based, mouse
Experimental: The hair of the dorsal skin of 7 weeks old male C57BL6 mice (purchased from Orient Bio Inc.) were cut with a clipper and skin tissue samples of the depilated dorsal region of the mice were collected. The collected skin tissue samples were immersed in medium using collagenase, DNase I, and hyaluronidase, and cells were isolated using Gentle MACSTM Dissociator (Miltenyi Biotec). After the cells were separated, the separated cells were incubated with a mouse CD34-Biotin antibody (Miltenyi Biotec). Cells and antibody solutions were incubated with streptavidin microbeads (Miltenyi Biotec) and then separated using LS column (Miltenyi Biotec). The separated cells were cultured in DMEM medium containing 10% FBS, 1% penicillin/streptomycin solution in humidified air of 95% 02 and 5% CO2 at 37° C.
Cell proliferation can be confirmed using the BrdU cell proliferation assay kit (Cell Signaling). Proliferation assays were performed using protocols presented by […]. Briefly, the cells were incubated with BrdU for 2 h. The primary BrdU detection antibody was incubated for 1 hour and the secondary anti-mouse IgG, HRP-conjugate antibody was incubated for 30 minutes.
A hair growth in vitro assay was performed using the Cyquant Assay (Thermo Fisher). […]

[5] = test system: hair follicle region of skin tissue; assay: Histological analysis (IHC for BrdU, β-catenin, Cytokeratin 15) of skin at Day 6 after depilation; assay type: in vivo, mouse; conditions: 100 nM
Experimental: A skin sample of 7 weeks old male C57BL6 mice (purchased from Orient Bio Inc.) was collected and placed in a paraffin block. IHC (Immunohistochemistry) was performed using Cytokeratin 15 antibody (Abcam), BrdU antibody (Novusbio), and β-catenin antibody.
For reference, β-catenin is a hair follicle signaling marker, Cytokeratin 15 is a hair follicle stem cell marker, and BrdU is a cell proliferation marker.
β-catenin is a very important protein for hair growth and a very important factor in follicular stem cell proliferation playing a role as a signaling marker for hair follicle cells. In addition, Cytokeratin 15 acts as a biomarker of hair follicle stem cells, and BrdU is known to be a factor that plays a role as a cell growth marker.

[6] = test system: dorsal hair of depilated C57BL6 mice; assay: In vivo hair regrowth after depilation of dorsal skin of mice; parameters: species or system mouse; conditions: 13 days after depilation, 100 nM polypeptide, 80 μl topical once a day
Experimental: (§1) The hair of the dorsal skin of mice (7 weeks old male C57BL6, purchased from Orient Bio Inc.) was cut out with a clipper, and hair removal cream (Niclean, Ildong Pharmaceutical) was applied. The depilated area was about 2×2.5 cm. Mice were treated with 20% glycerol/PBS (control group), 3% Minoxidil (MNX, 140 mM), FGF7 (100 nM) or Neo-Pep of the present invention (polypeptide of SEQ ID NO: 1, 100 nM), respectively, once a day in 80 μl using brush, for 13 days (n=6 per group).
as §1, with “Specifically, the hair” for “The hair”, “of a mouse” for “of mice”, “group). For comparative observation, the dorsal skin of the mouse was photographed before and after the beginning of the test.” for “group).”

[7] = test system: hair follicles in skin tissue of C3H/HeJ mice; assay: H&E histology of skin tissue of C3H/HeJ alopecia areata mice; assay type: in vivo, mouse; conditions: 100 nM topical
Text: Meanwhile, in the images of the skin tissue of the mouse in FIG. 7, the skin tissue at the alopecia area and the area without alopecia around it was collected, fixed in Fekete's acid alcohol formalin and analyzed for H&E staining.
These are main characteristics used for diagnosing alopecia areata. And follicular dystrophy is a phenomenon that occurs frequently in alopecia areata, which means that hair follicles are twisted and deformed or have weak or disrupted hair shaft.

Sequence: AVLKRLEQKGAEADQIIEYLKQQVSLLKEKAILQATLREEK (Homo sapiens Neo-Pep polypeptide; AIMP1-(6-46))
- time at which hair began to grow again [1]: 11 weeks
- mice with mild to moderate hair growth ([1]; 4 mice per group): 3 out of 4
- mRNA expression level of AXIN, CD44 and TCF7 compared to the control group [2]: 5 fold
- dermis thickness compared with control [3]: much thicker
- number of hair follicles of anagen phase compared with control [3]: more than twice as much
- proliferation of CD34+ hair follicle stem cells ([4]; 1 nM, 10 nM, 100 nM and 1000 nM): induced proliferation of CD34+ hair follicle stem cells in a dose-dependent manner
- inducing proliferation of CD34+ hair follicle stem cells (relative cell number) ([4]; each peptide 100 nM, 24 hours): induced proliferation
- start of anagen phase compared with control (BrdU, β-catenin, Cytokeratin 15) [5]: starts earlier
- dorsal hair growth compared with control group [6]: grew much more
- development of inflammation and deformed hair shaft compared to the control group [7]: significantly lower

Reference: patent US11872263B2, “AIMP1 protein fragment and hair growth-promoting composition containing same as active ingredient” (CUREBIO THERAPEUTICS, priority 2016, dated 2024)
